Test results published in patent US12329739B2, “Isoflavonoid compounds and methods for the treatment of cancer” (Aardvark Therapeutics, Inc., priority 2010, dated 2025).

How the values were obtained:
4405 = assay: MTT proliferation assay, 4405; type: cell-based; conditions: Melanoma, 4405, 120 h of exposure
Experimental: (§1) Proliferation Assays. IC50 values were determined for each cell line. Cells were seeded in 96-well plates at an appropriate cell density as determined from growth kinetics analysis and cultured for 5 days in the absence and presence of the test compounds. Cell proliferation was assessed after the addition of 20 μl of 3-4,5 dimethylthiazol-2,5-diphenyl tetrazolium bromide (MTT, 5 mg/ml in PBS, Sigma) for 5 hrs at 37° C. according to manufacturer's instructions. IC50 values were calculated from semi-log plots of % of control proliferation on the y-axis against log dose on the x-axis.
(§2) Anti-proliferative Activity of Isoflavonoid Derivatives. IC50 values were determined for each cell line after 120 h of exposure.

DU145 = assay: MTT proliferation assay, DU145; type: cell-based; conditions: Prostate, DU145, 120 h of exposure
Experimental: as §1, §2

R-182 = assay: MTT proliferation assay, R-182; type: cell-based; conditions: Ovarian, R-182, 120 h of exposure
Description: Tissue culture. The multidrug resistant primary epithelial ovarian cancer cell line R-182 TARA was a gift from Dr. Gil Mor (Yale University, New Haven, CT, USA). This cell line was derived by explant from ovarian tumors and cultured as previously described. All other cell lines were purchased from American Type Culture Collection (ATCC, Manassas, VA, USA) with the exception of MKN1, HuH-7, JHH-1, which were purchased from the Japanese Collection of Research Bioresources (JCRB, Osaka, Japan), and OE19 which was purchased from the European Collection of Cell Cultures (ECACC, Salisbury, UK).
as §1, §2

HepG2 = assay: MTT proliferation assay, HepG2; type: cell-based, human; conditions: Liver, HepG2, 120 h of exposure
Experimental: (§3) The human hepatocellular carcinoma lines HepG2 (HB-8065), SK-HEP-1 (HTB-52) and the normal human lung fibroblast line IMR-90 (CCL-186) were cultured in Minimum Essential Eagles Medium containing 2 mM L-glutamine, 2.2 g/L sodium bicarbonate, supplemented with 1 mM sodium pyruvate and 0.1 mM non-essential amino acids. The human hepatocellular carcinoma line JHH-1 (JCRB1062) was cultured in Williams E Medium (Invitrogen) containing 2.2 g/L sodium bicarbonate, supplemented with 2 mM L-glutamine. The hepatocellular carcinoma line HuH-7 (JCRB0403) was cultured in DMEM, supplemented with 2 mM L-glutamine.
as §1, §2

CP70 = assay: MTT proliferation assay, CP70; type: cell-based; conditions: Ovarian, CP70, 120 h of exposure
Experimental: as §1, §2

SK-Hep-1 = assay: MTT proliferation assay, SK-Hep-1; type: cell-based, human; conditions: Liver, SK-Hep-1, 120 h of exposure
Experimental: as §3, §1, §2

A549 = assay: MTT proliferation assay, A549; type: cell-based; conditions: NSCLC, A549, 120 h of exposure
Experimental: as §1, §2

COLO205 = assay: MTT proliferation assay, COLO205; type: cell-based, human; conditions: CRC, COLO205, 120 h of exposure
Experimental: (§4) The human non-small cell lung adenocarcinoma lines NCI-H1299 (CRL-5803), NCI-H460 (HTB-177), NCI-H358 (CRL-5807), NCI-H838 (CRL-5844), the human colorectal adenocarcinoma lines COLO 205 (CCL-222), HCT-15 (CCL-225) and the human gastric cancer cell line NCI-N87 (CRL-5822) were cultured in RPMI 1640 medium containing 2 g/L sodium bicarbonate (Hyclone/Invitrogen) supplemented with 2 mM L-glutamine (Gibco) 1 mM sodium pyruvate (Sigma), 10 mM HEPES (Sigma) and 4500 mg/L glucose (Sigma). The human non-small cell lung adenocarcinoma line NCI-H2126 (CCL-256) was cultured in DMEM:F12(1:1) (Hyclone/Invitrogen) containing 2.5 mM L-glutamine 2.4 g/L sodium bicarbonate supplemented with 5% fetal bovine serum (FBS), an additional 2 mM L-glutamine, 15 mM HEPES, 0.005 mg/ml insulin (Sigma), 0.01 mg/ml transferrin (Sigma), 30 nM sodium selenite (Sigma), 10 nM hydrocortisone (Sigma) and 10 nM beta-estradiol (Sigma). The human colorectal adenocarcinoma line HT-29 (HTB-38) and the human gastric cancer cell lines OE-19 (#96071721) and MKN1 (JCRB0252) were cultured in RPMI 1640 media supplemented with 2 mM L-glutamine.
as §1, §2

A2780 = assay: MTT proliferation assay, A2780; type: cell-based; conditions: Ovarian, A2780, 120 h of exposure
Experimental: as §1, §2

CALU3 = assay: MTT proliferation assay, CALU3; type: cell-based; conditions: NSCLC, CALU3, 120 h of exposure
Experimental: as §1, §2

LNCaP = assay: MTT proliferation assay, LNCaP; type: cell-based; conditions: Prostate, 120 h of exposure
Experimental: as §1, §2

NCI-H460 = assay: MTT proliferation assay, NCI-H460; type: cell-based, human; conditions: NSCLC, NCI-H460, 120 h of exposure
Experimental: as §4, §1, §2

PC3 = assay: MTT proliferation assay, PC3; type: cell-based; conditions: Prostate, PC3, 120 h of exposure
Experimental: as §1, §2

A2058 = assay: MTT proliferation assay, A2058; type: cell-based; conditions: Melanoma, A2058, 120 h of exposure
Experimental: as §1, §2

MDA-MB-468 = assay: MTT proliferation assay, MDA-MB-468; type: cell-based, human; conditions: Breast, MDA-MB-468, 120 h of exposure
Experimental: The human gastric cancer cell line AGS (CRL-1739) was cultured in Hams F-12K (Kaighans modification) medium containing 2 mM L-glutamine, 2.5 g/L sodium bicarbonate and 2 mM sodium pyruvate. The human breast adenocarcinoma line MDA-MB-468 (HTB-132) was cultured in DMEM:F12 (1:1) medium containing 2.5 mM L-glutamine, 2.4 g/L sodium bicarbonate, supplemented with an additional 2 mM L-glutamine.
as §1, §2

HuH-7 = assay: MTT proliferation assay, HuH-7; type: cell-based, human; conditions: Liver, HuH-7, 120 h of exposure
Experimental: as §3, §1, §2

SKBR-3 = assay: MTT proliferation assay, SKBR-3; type: cell-based, human; conditions: Breast, SKBR-3, 120 h of exposure
Experimental: The human colorectal adenocarcinoma line HCT-116 (CCL-247) and the human breast adenocarcinoma line SK-BR-3 (HTB-30) were cultured in McCoy's 5a Medium (Invitrogen) containing 1.5 mM L-glutamine and 2.2 g/L sodium bicarbonate. The human colorectal adenocarcinoma line SW620 (CCL-227) was cultured in Leibovitz's L-15 Medium (Invitrogen) containing 2.05 mM L-glutamine.
as §1, §2

MM200 = assay: MTT proliferation assay, MM200; type: cell-based; conditions: Melanoma, MM200, 120 h of exposure
Experimental: as §1, §2

[1] = Homo sapiens, MDA-MB-468, 120 h

IC50 (DU145) [nM]	IC50 (HepG2) [nM]	IC50 (SK-Hep-1) [nM]	IC50 (A549) [nM]	IC50 (COLO205) [nM]	IC50 (A2780) [nM]	IC50 (CALU3) [nM]	IC50 (LNCaP) [nM]	IC50 (NCI-H460) [nM]	IC50 (PC3) [nM]	IC50 (MDA-MB-468) [nM]	IC50 (HuH-7) [nM]	IC50 (DU145; Homo sapiens, DU-145) [nM]	IC50 (SKBR-3; Homo sapiens, SK-BR-3, 120 h) [nM]	IC50 (HepG2; Homo sapiens) [nM]	SMILES	IC50 4405 [nM]	IC50 (R-182) [nM]	IC50 (CP70) [nM]	IC50 (A2058) [nM]	IC50 (MM200) [nM]	further results
150 to 500	≤ 150	≤ 150	150 to 500	1600 to 10000	150 to 500	150 to 500	150 to 500	150 to 500	150 to 500	≤ 150	150 to 500	–	–	–	Cc1cc([C@H]2c3ccc(O)c(C)c3OC[C@H]2c2ccc(O)cc2)ccc1O (relative stereo) [d-6, d-cis-3-(4-hydroxyphenyl)-4-(4-hydroxy-3-methylphenyl)-8-methylchroman-7-ol]	150 to 500	≤ 150	150 to 500	≤ 150	–	–
≥ 10000	≥ 10000	≥ 10000	≥ 10000	≥ 10000	≥ 10000	≥ 10000	≥ 10000	≥ 10000	≥ 10000	≥ 10000	≥ 10000	–	–	–	Cc1cc([C@H]2c3ccc(O)c(C)c3OC[C@H]2c2ccc(O)cc2)ccc1O (relative stereo) [l-6, l-cis-3-(4-hydroxyphenyl)-4-(4-hydroxy-3-methylphenyl)-8-methylchroman-7-ol]	≥ 10000	≥ 10000	≥ 10000	≥ 10000	≥ 10000	IC50 (SKBR-3): 1600 to 10000 nM
–	–	–	–	–	–	–	–	–	–	–	–	150 to 500	≤ 150	≤ 150	Cc1c(O)ccc2c1OCC(c1ccc(O)cc1)C2c1ccc(O)cc1 (stereo not shown) [Compound 5, 3-(4-hydroxyphenyl)-4-(4-hydroxyphenyl)-8-methylchroman-7-ol]	150 to 500	150 to 500	–	–	150 to 500	IC50 (CP70; 120 h): ≤ 150 nM; IC50 (SK-Hep-1; Homo sapiens, SK-HEP1): 150 to 500 nM; IC50 (A549; Homo sapiens): 150 to 500 nM; IC50 (COLO205; Homo sapiens, COLO 205): 1600 to 10000 nM; IC50 (A2780; Homo sapiens, A2780, 120 h): 150 to 500 nM; IC50 (CALU3; Homo sapiens, Calu-3): ≤ 150 nM; IC50 (LNCaP; Homo sapiens): 150 to 500 nM; IC50 (NCI-H460; Homo sapiens): 150 to 500 nM; IC50 (PC3; Homo sapiens, PC-3, 120 h): 150 to 500 nM; IC50 (A2058; Homo sapiens, A2058, 120 h): ≤ 150 nM; IC50 (MDA-MB-468; [1]): 150 to 500 nM; IC50 (HuH-7; Homo sapiens): 150 to 500 nM
–	–	–	–	–	–	–	–	–	–	–	–	150 to 500	≤ 150	150 to 500	Cc1cc(C2c3ccc(O)c(C)c3OCC2c2ccc(O)cc2)ccc1O (stereo not shown) [Compound 6, 3-(4-hydroxyphenyl)-4-(4-hydroxy-3-methylphenyl)-8-methylchroman-7-ol]	150 to 500	150 to 500	–	–	510 to 1500	IC50 (CP70; 120 h): 510 to 1500 nM; IC50 (SK-Hep-1; Homo sapiens, SK-HEP1): 150 to 500 nM; IC50 (A549; Homo sapiens): 510 to 1500 nM; IC50 (COLO205; Homo sapiens, COLO 205): 1600 to 10000 nM; IC50 (A2780; Homo sapiens, A2780, 120 h): 150 to 500 nM; IC50 (CALU3; Homo sapiens, Calu-3): 150 to 500 nM; IC50 (LNCaP; Homo sapiens): 510 to 1500 nM; IC50 (NCI-H460; Homo sapiens): 150 to 500 nM; IC50 (PC3; Homo sapiens, PC-3, 120 h): 150 to 500 nM; IC50 (A2058; Homo sapiens, A2058, 120 h): 150 to 500 nM; IC50 (MDA-MB-468; [1]): 150 to 500 nM; IC50 (HuH-7; Homo sapiens): 150 to 500 nM
